Where two headings read alike, the source gives them in different places.
Tests used:
[1] = target: T1, yeast NADPH-cytochrome P450 reductase (yCPR) (Saccharomyces cerevisiae, UniProt P16603); assay: SPR; type: binding
T1 sequence (P16603 34-691): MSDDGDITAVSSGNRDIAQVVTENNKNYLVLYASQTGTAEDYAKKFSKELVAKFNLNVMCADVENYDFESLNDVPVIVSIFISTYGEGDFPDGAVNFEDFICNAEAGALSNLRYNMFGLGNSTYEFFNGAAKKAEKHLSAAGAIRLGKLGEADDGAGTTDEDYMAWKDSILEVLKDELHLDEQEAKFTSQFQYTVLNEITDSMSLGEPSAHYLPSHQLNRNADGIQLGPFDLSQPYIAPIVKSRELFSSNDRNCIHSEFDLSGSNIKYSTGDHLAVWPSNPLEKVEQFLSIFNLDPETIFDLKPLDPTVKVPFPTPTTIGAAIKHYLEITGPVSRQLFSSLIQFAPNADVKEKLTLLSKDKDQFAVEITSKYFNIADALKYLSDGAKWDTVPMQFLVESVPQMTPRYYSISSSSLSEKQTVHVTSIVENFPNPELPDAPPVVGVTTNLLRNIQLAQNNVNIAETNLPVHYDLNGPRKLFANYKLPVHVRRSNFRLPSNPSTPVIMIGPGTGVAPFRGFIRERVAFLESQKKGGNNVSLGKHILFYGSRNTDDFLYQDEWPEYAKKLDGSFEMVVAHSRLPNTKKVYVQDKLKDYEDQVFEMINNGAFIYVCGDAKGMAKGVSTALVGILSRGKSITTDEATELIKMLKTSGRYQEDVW

[2] = target: T1, yeast NADPH-cytochrome P450 reductase (yCPR); assay: SPR; type: binding; remark: listed apart in the source

SMILES | Kd [1] | Kd [2]
Cc1cc2nc3c(=O)[nH]c(=O)nc-3n(C[C@H](O)[C@H](O)[C@H](O)COP(=O)(O)OP(=O)(O)OC[C@H]3O[C@@H](n4cnc5c(N)ncnc54)[C@H](O)[C@@H]3O)c2cc1C [compound 8, FAD] | 2.3 µM | –
Cc1cc2nc3c(=O)[nH]c(=O)nc-3n(C[C@H](O)[C@H](O)[C@H](O)COP(=O)(O)O)c2cc1C [compound 7, FMN] | – | 0.3 µM
